Assay results: patent US8609688B2, “Substituted imidazopyridinyl-aminopyridine compounds” (ArQule, Inc., priority 2011, dated 2013)

Columns and labels:
[1] = biological target: T1, Full-length inactive AKT1 (Homo sapiens (Human), UniProt P31749); assay: Thermal Shift Assay (protein-ligand binding); details: Kd at 25° C. calculated using constant ligand binding enthalpy −15 kcal/mol; 15 μM compound, ANS dye
Procedure: Binding analysis. Protein-ligand binding was identified with the thermal shift assay which is based on the ligand-induced stabilization of the protein tertiary structure. The thermal stability of the ligand-Akt1 complex was assessed by subjecting the complex to a set temperature gradient and by comparison of the meltion temperature of the Akt1-ligand complex with the melting temperature of the protein alone. Protein unfolding was monitored by the fluorescence readout of an environmentally sensitive fluorescent dye, 1-anilinonaphthalene-8-sulfonic acid (ANS). […] The PCR plate was placed into a RT-PCR instrument and a temperature gradient was performed, increasing from 27 to 80° C., at 1° C./30 sec heat rate with a dwell time of 20 sec. The change in ANS fluorescence was measured using the filter set of 475 nm/525 nm excitation/emission.

[2] = biological target: T1, Full-length inactive AKT1; assay: Inactive Akt Alpha Screen Assay; details: 8 nM inactive Akt1 activated by PDK1 and MAPKAPK2, lipid vesicles, 50 μM ATP, biotinylated crosstide; read-out: Akt1 biochemical assay IC50 AlphaScreen crosstide
Procedure: AKT1 activity was assayed using the GSK3-derived biotinylated peptide substrate, crosstide (biotin-[…]), and AlphaScreen™ (Amplified Luminescent Proximity Homogeneous Assay) technology. AKT1 activation was achieved by the addition of the activating kinases PDK1 and MAPKAPK2, lipid vesicles, and ATP. The extent of peptide phosphorylation was determined using a phospho-AKT substrate antibody and acceptor beads conjugated to Protein A and donor beads conjugated to streptavidin that bind to the biotin on the peptide. Excitation of the donor beads converted ambient oxygen to excited singlet oxygen which, when in close proximity to acceptor beads, reacted with acceptor beads resulting in signal amplification.
After a 20 minute pre-incubation at room temperature, the kinase reaction was initiated by the addition of 5 μL of an activation mixture diluted in assay buffer containing biotinylated crosstide, PDK1, MAPKAPK2, DOPS/DOPC, PtdIns(3,4,5)P3, and ATP for final concentrations of 60 nM biotinylated crosstide, 0.1 nM PDK1, 0.7 nM MK2, 5.5 μM DOPS, 5.5 μM DOPC, 0.5 μM PtdIns(3,4,5)P3, and 50 μM ATP. The plates were incubated for 30 minutes at room temperature, and then stopped in the dark by the addition of 10 μL stop/detection mixture prepared in assay buffer containing EDTA, AlphaScreen™ Streptavidin Donor and Protein A Acceptor beads, and phospho-AKT substrate antibody for final concentrations of 10 mM EDTA, 500 ng/well of both AlphaScreen™ Streptavidin Donor beads and Protein A Acceptor beads, and phospho-AKT substrate antibody at a final dilution of 1:350. Assay plates were incubated for 90 minutes at room temperature in the dark, and the plates were read on a Perkin Elmer Envision Multilabel plate reader (excitation wavelength: 640 nm, emission wavelength: 570 nm). […]

Phospho-Akt (S473) = assay: Cell ELISA Assay, Phospho-Akt detection; assay type: cell-based; details: cells treated for 1 hour, cell line not stated
Procedure: Phospho-Akt detection analysis. Phospho-Akt (S473) was detected using cell ELISA. Briefly, cells were plated in a 96-well plate at 7,000-10,000 cells per well, cultured for 2-3 days in complete growth medium, and then treated with various drugs or combinations of drugs for 1 hour. The cells were fixed with ice-cold methanol, and washed with TBS supplemented with 1% H2O2. Phospho-Akt (S473) was probed with corresponding rabbit antibody as a primary antibody, and horseradish peroxidase conjugated goat anti-rabbit IgG. After treatment with SuperSignal® ELISA for 15 minutes, the detection was performed using a luminometer. Data were normalized to untreated controls and analyzed with Microsoft Excel.

cells = assay: Cell proliferation / viability GI50 (MTS assay or ATP quantitation assay); assay type: cell-based; details: 72 hours treatment; cell line and assay (MTS or ATP quantitation) not stated
Procedure: Cell proliferation analysis. Cell survival was determined by the MTS assay. Briefly, cells were plated in a 96-well plate at 2,000-10,000 cells per well, cultured for 24 hours in complete growth medium, and then treated with various drugs and drug combinations for 72 hours. MTS was added and incubated for 4 hour, followed by assessment of cell viability using the microplate reader at 570 nm. Data were normalized to untreated controls and analyzed with Microsoft Excel.
Cell viability analysis. Cell viability was determined by the ATP quantitation assay. Briefly, cells were plated in a 96-well plate at 2,000-10,000 cells per well, cultured for 24 hours in complete growth medium, and then treated with various drugs or combination of drugs for 72 hours. CellTiter-Glo® reagent was added and incubated at room temperature for 10 minutes, followed by assessment of cell viability using a luminometer. Data were normalized to untreated controls and analyzed with Microsoft Excel.

T1 sequence (P31749 whole entry): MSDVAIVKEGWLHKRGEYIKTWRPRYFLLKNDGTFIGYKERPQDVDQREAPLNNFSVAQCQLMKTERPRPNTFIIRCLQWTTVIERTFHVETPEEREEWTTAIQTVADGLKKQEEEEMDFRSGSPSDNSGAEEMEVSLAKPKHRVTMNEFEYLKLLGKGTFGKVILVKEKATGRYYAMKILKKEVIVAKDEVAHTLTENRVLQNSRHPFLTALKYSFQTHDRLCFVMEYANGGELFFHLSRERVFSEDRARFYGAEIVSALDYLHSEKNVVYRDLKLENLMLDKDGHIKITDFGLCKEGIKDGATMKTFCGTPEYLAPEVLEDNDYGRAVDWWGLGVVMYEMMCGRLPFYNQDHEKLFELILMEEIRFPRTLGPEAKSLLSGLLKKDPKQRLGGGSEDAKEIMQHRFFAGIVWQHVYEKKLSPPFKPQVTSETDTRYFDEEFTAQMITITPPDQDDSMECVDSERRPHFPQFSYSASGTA

SMILES | Kd [1] | IC50 [2] | IC50 (Phospho-Akt (S473)) | GI50 (cells)
C[C@@H](O)CNC(=O)c1cccc(-c2ccc3nc(-c4cccnc4N)n(-c4ccc(C5(N)CCC5)cc4)c3n2)c1 [Cmpd 8, (R)-3-(3-(4-(1-aminocyclobutyl)phenyl)-2-(2-aminopyridin-3-yl)-3H-imidazo[4,5-b]pyridin-5-yl)-N-(2-hydroxypropyl)benzamide] |  |  | 0.008 µM | 1350 µM
Nc1ncccc1-c1nc2ccc(-c3cccc(N4CCC(C(=O)N5CCOCC5)CC4)c3)nc2n1-c1ccc(C2(N)CCC2)cc1 [Cmpd 11, (1-(3-(3-(4-(1-aminocyclobutyl)phenyl)-2-(2-aminopyridin-3-yl)-3H-imidazo[4,5-b]pyridin-5-yl)phenyl)piperidin-4-yl)(morpholino)methanone] | 0.0002 µM | 0.00336 µM | 0.0017 µM | 
Nc1ncccc1-c1nc2ccc(Oc3ccccc3)nc2n1-c1ccc(C2(N)CCC2)cc1 [Cmpd 22, 3-(3-(4-(1-aminocyclobutyl)phenyl)-5-phenoxy-3H-imidazo[4,5-b]pyridin-2-yl)pyridin-2-amine] | 0.0831 µM |  |  | 
CC(=O)OC(C)(C)C(=O)Nc1cccc(-c2ccc3nc(-c4cccnc4N)n(-c4ccc(C5(N)CCC5)cc4)c3n2)c1 [Cmpd 5, 1-((3-(3-(4-(1-aminocyclobutyl)phenyl)-2-(2-aminopyridin-3-yl)-3H-imidazo[4,5-b]pyridin-5-yl)phenyl)amino)-2-methyl-1-oxopropan-2-yl acetate] | 0.0007 µM | 0.00446 µM |  | 
Nc1ncccc1-c1nc2ccc(N3CCOCC3)nc2n1-c1ccc(C2(N)CCC2)cc1 [Cmpd 1, 3-(3-(4-(1-aminocyclobutyl)phenyl)-5-morpholino-3H-imidazo[4,5-b]pyridin-2-yl)pyridin-2-amine] |  |  | 0.235 µM | 
CC(C)C(=O)N1CCN(c2cccc(-c3ccc4nc(-c5cccnc5N)n(-c5ccc(C6(N)CCC6)cc5)c4n3)c2)CC1 [Cmpd 15, 1-(4-(3-(3-(4-(1-aminocyclobutyl)phenyl)-2-(2-aminopyridin-3-yl)-3H-imidazo[4,5-b]pyridin-5-yl)phenyl)piperazin-1-yl)-2-methylpropan-1-one] | 0.0011 µM |  | 0.004 µM | 
Nc1ncccc1-c1nc2ccc(Nc3ccccc3)nc2n1-c1ccc(C2(N)CCC2)cc1 [Cmpd 19, 3-(4-(1-aminocyclobutyl)phenyl)-2-(2-aminopyridin-3-yl)-N-phenyl-3H-imidazo[4,5-b]pyridin-5-amine] |  | 0.00377 µM | 0.06 µM | 1420 µM
CN(C)C(=O)C1CCN(c2cccc(-c3ccc4nc(-c5cccnc5N)n(-c5ccc(C6(N)CCC6)cc5)c4n3)c2)CC1 [Cmpd 9, 1-(3-(3-(4-(1-aminocyclobutyl)phenyl)-2-(2-aminopyridin-3-yl)-3H-imidazo[4,5-b]pyridin-5-yl)phenyl)-N,N-dimethylpiperidine-4-carboxamide] | 0.0002 µM | 0.00251 µM | 0.0021 µM | 
C[C@@H]1CN(c2cccc(-c3ccc4nc(-c5cccnc5N)n(-c5ccc(C6(N)CCC6)cc5)c4n3)c2)C[C@H](C)O1 [Cmpd 17, 3-(3-(4-(1-aminocyclobutyl)phenyl)-5-(3-((2S,6R)-2,6-dimethylmorpholino)phenyl)-3H-imidazo[4,5-b]pyridin-2-yl)pyridin-2-amine] | 0.0031 µM | 0.00436 µM |  | 

Continued, in another order:

Kd [1] | IC50 [2] | IC50 (Phospho-Akt (S473)) | SMILES | GI50 (cells)
0.0008 µM | 0.00179 µM |  | Nc1ncccc1-c1nc2ccc(-c3cccc(N4CCS(=O)(=O)CC4)c3)nc2n1-c1ccc(C2(N)CCC2)cc1 [Cmpd 18, 4-(3-(3-(4-(1-aminocyclobutyl)phenyl)-2-(2-aminopyridin-3-yl)-3H-imidazo[4,5-b]pyridin-5-yl)phenyl)thiomorpholine 1,1-dioxide] | 
0.0014 µM | 0.00215 µM | 0.009 µM | CCC(=O)N1CCN(c2cccc(-c3ccc4nc(-c5cccnc5N)n(-c5ccc(C6(N)CCC6)cc5)c4n3)c2)CC1 [Cmpd 13, 1-(4-(3-(3-(4-(1-aminocyclobutyl)phenyl)-2-(2-aminopyridin-3-yl)-3H-imidazo[4,5-b]pyridin-5-yl)phenyl)piperazin-1-yl)propan-1-one] | 335 µM
0.0002 µM | 0.00415 µM | 0.003 µM | CCN(CC)C(=O)C1CCN(c2cccc(-c3ccc4nc(-c5cccnc5N)n(-c5ccc(C6(N)CCC6)cc5)c4n3)c2)CC1 [Cmpd 10, 1-(3-(3-(4-(1-aminocyclobutyl)phenyl)-2-(2-aminopyridin-3-yl)-3H-imidazo[4,5-b]pyridin-5-yl)phenyl)-N,N-diethylpiperidine-4-carboxamide] | 
0.0017 µM | 0.00342 µM |  | CC(C)(C)C(=O)N1CCN(c2cccc(-c3ccc4nc(-c5cccnc5N)n(-c5ccc(C6(N)CCC6)cc5)c4n3)c2)CC1 [Cmpd 16, 1-(4-(3-(3-(4-(1-aminocyclobutyl)phenyl)-2-(2-aminopyridin-3-yl)-3H-imidazo[4,5-b]pyridin-5-yl)phenyl)piperazin-1-yl)-2,2-dimethylpropan-1-one] | 
0.0011 µM | 0.00184 µM | 0.011 µM | Nc1ncccc1-c1nc2ccc(-c3cccc(N4CCN(C(=O)C5CC5)CC4)c3)nc2n1-c1ccc(C2(N)CCC2)cc1 [Cmpd 14, (4-(3-(3-(4-(1-aminocyclobutyl)phenyl)-2-(2-aminopyridin-3-yl)-3H-imidazo[4,5-b]pyridin-5-yl)phenyl)piperazin-1-yl)(cyclopropyl)methanone] | 296 µM
0.0573 µM | 0.00872 µM | 0.414 µM | Nc1ncccc1-c1nc2ccc(Nc3ccc(N4CCOCC4)cc3)nc2n1-c1ccc(C2(N)CCC2)cc1 [Cmpd 20, 3-(4-(1-aminocyclobutyl)phenyl)-2-(2-aminopyridin-3-yl)-N-(4-morpholinophenyl)-3H-imidazo[4,5-b]pyridin-5-amine] | 
0.0014 µM | 0.00163 µM |  | CC(C)(O)C(=O)Nc1cccc(-c2ccc3nc(-c4cccnc4N)n(-c4ccc(C5(N)CCC5)cc4)c3n2)c1 [Cmpd 6, N-(3-(3-(4-(1-aminocyclobutyl)phenyl)-2-(2-aminopyridin-3-yl)-3H-imidazo[4,5-b]pyridin-5-yl)phenyl)-2-hydroxy-2-methylpropanamide] | 
0.0004 µM | 0.0017 µM | 0.017 µM | CC(C)(C)C(=O)Nc1cccc(-c2ccc3nc(-c4cccnc4N)n(-c4ccc(C5(N)CCC5)cc4)c3n2)c1 [Cmpd 4, N-(3-(3-(4-(1-aminocyclobutyl)phenyl)-2-(2-aminopyridin-3-yl)-3H-imidazo[4,5-b]pyridin-5-yl)phenyl)pivalamide] | 265 µM
0.11 µM |  | 0.605 µM | Nc1ncccc1-c1nc2ccc(Sc3ccccc3)nc2n1-c1ccc(C2(N)CCC2)cc1 [Cmpd 21, 3-(3-(4-(1-aminocyclobutyl)phenyl)-5-(phenylthio)-3H-imidazo[4,5-b]pyridin-2-yl)pyridin-2-amine] | 
 |  | 0.012 µM | C[C@H](O)CNC(=O)c1cccc(-c2ccc3nc(-c4cccnc4N)n(-c4ccc(C5(N)CCC5)cc4)c3n2)c1 [Cmpd 7, (S)-3-(3-(4-(1-aminocyclobutyl)phenyl)-2-(2-aminopyridin-3-yl)-3H-imidazo[4,5-b]pyridin-5-yl)-N-(2-hydroxypropyl)benzamide] | 836 µM
